Values quoted from earlier work in patent publication US6987129B2, “Compounds and methods for the treatment of urogenital disorders” (Cellegy Pharmaceuticals, Inc., priority 2001, dated 2006).

Legend:
women with FSAD = settings: human, in vivo
[1] = in vivo

Row | Compound | efficacy in a larger clinical trial including other patients suffering from FSAD (women with FSAD) | efficacy in women with spinal cord injury and in women using antidepressants such as serotonin reuptake inhibitors (women with FSAD) | excretion [1] | metabolism by the liver [1]
1 | CCCc1nn(C)c2c(=O)[nH]c(-c3cc(S(=O)(=O)N4CCN(C)CC4)ccc3OCC)nc12 [Sildenafil] | failed to show efficacy | demonstrated efficacy |  | 
2 | Cn1c(=O)c2c(ncn2CC(O)CO)n(C)c1=O (stereo not shown) [dyphylline] |  |  | excreted unchanged by the kidneys | not metabolized by the liver
